Measured values as given in US10184115B2, “Mutated cellobiose dehydrogenase with increased substrate specificity” (DIRECTSENS GMBH, priority 2012, dated 2019).

Molecular target: T1, Myriococcum thermophilum cellobiose dehydrogenase (CDH), recombinant wild type, SEQ ID NO: 1 (Thermothelomyces myriococcoides, UniProt A9XK88)
T1 sequence (A9XK88 22-828): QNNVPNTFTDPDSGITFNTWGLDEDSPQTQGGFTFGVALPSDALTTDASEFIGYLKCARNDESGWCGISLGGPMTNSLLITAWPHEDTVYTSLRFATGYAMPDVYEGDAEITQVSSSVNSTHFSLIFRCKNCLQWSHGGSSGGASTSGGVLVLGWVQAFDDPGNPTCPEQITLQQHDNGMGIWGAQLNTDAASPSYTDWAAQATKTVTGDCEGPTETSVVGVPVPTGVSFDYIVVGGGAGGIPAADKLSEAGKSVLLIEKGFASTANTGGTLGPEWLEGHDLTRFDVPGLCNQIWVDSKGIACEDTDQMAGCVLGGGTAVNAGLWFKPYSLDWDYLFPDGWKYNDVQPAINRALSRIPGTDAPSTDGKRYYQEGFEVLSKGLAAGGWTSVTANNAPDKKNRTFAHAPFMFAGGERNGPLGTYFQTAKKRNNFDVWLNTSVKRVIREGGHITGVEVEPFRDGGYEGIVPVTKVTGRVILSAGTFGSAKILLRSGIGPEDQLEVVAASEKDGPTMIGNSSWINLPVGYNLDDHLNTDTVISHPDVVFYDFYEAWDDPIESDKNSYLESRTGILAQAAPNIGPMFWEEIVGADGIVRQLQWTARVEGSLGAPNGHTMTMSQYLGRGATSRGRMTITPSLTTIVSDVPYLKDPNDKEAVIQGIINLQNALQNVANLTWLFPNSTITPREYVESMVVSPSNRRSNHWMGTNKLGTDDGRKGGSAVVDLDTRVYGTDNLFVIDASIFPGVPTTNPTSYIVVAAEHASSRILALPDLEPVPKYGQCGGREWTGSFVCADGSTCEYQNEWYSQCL
Test: Steady-state kinetics, DCIP assay: M. thermophilum CDH wt
Type: biochemical
Settings: apparent, pH 4.5, 30° C.
Procedure: Enzyme activity was assayed at 30° C. using either the DCIP (Karapetyan et al., 2005 Journal of Biotechnology 121: 34-48) or cytochrome c (Canevascini et al., 1991, European Journal of Biochemistry 198: 43-52) as electron acceptor. […] Stock solutions of carbohydrates used for kinetic measurements were prepared in the respective buffer and allowed to stand overnight for mutarotation, while stock solutions of electron acceptors were prepared in water and immediately used. The reaction stoichiometry is 1 for the two-electron acceptor DCIP (1 mole of DCIP reduced per mole of carbohydrate oxidized), but 2 for the one-electron acceptor cytochrome c. Kinetic constants were calculated by fitting the observed data to the Henri-Michaelis-Menten equation or to the adapted model for substrate inhibition using nonlinear least-squares regression and the program SigmaPlot (Systat Software, San Jose, Calif., USA). […]
Recombinant wild-type CDH as well as variants were produced in 1 L baffled flasks. […] Increase in activity was monitored using the DCIP and the cytochrome c enzyme assays. […]
The sample was loaded on a 20 mL PHE Sepharose FF column (HR26/20) equilibrated with 50 mM Na-acetate buffer pH 5.5 containing 20% ammonium sulfate. […] Fractions were tested for CDH activity and pooled according to the highest Reinheitszahl (RZ, calculated from the absorbance ratio 420 nm/280 nm). […]

In the case of `OC[C@H]1OC(O)[C@H](O)[C@@H](O)[C@@H]1O` (some centres unmarked) [Glucose, glucose], the kcat was 4.8 s⁻¹ and the kcat/KM was 12 M⁻¹ s⁻¹.
